{"source": "paper PMC10770758", "about": "“Protocatechuate hydroxylase is a novel group A flavoprotein monooxygenase with a unique substrate recognition mechanism” (The Journal of Biological Chemistry, 2023)", "format_in_all_cases": "binding", "key": {"PkPobA": {"molecular_target": "T1, PkPobA (Pigmentiphaga kullae, UniProt A0A4Q7NA79)", "T1 construct": "gene EV675_5624; codon-optimised gene in modified pET28a, His-tagged, E. coli BL21 Star (DE3), HisTrap", "T1 sequence (A0A4Q7NA79 1-391)": "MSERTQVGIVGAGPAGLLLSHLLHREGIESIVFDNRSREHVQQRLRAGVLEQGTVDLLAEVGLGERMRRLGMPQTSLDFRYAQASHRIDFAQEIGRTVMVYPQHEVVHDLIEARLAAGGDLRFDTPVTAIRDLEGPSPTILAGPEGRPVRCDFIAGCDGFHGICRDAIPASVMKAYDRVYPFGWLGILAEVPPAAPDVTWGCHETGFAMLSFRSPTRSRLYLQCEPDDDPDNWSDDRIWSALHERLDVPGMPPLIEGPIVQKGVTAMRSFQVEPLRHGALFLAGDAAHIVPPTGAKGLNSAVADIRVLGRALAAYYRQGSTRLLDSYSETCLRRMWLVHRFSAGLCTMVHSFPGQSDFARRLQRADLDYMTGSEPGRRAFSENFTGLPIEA", "assay": "HPLC of heat-released flavin; absorption spectrum", "settings": "prosthetic group"}, "OtPobA": {"molecular_target": "T2, OtPobA (Ottowia thiooxydans, UniProt A0ABV2Q8W8)", "T2 construct": "gene ABIE13_002600; codon-optimised gene in modified pET28a, His-tagged, E. coli BL21 Star (DE3), HisTrap", "T2 sequence (A0ABV2Q8W8 1-392)": "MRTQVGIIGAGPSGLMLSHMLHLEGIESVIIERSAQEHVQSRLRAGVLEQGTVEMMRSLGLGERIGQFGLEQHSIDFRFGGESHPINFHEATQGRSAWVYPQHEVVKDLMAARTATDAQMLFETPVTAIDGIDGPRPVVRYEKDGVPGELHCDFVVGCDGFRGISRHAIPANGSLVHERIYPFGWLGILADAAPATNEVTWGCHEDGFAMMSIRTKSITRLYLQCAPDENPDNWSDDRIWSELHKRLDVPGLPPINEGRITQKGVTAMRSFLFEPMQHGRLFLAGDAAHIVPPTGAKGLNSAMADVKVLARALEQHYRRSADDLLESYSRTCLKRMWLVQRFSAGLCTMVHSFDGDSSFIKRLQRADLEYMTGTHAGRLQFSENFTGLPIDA", "assay": "HPLC of heat-released flavin; absorption spectrum", "settings": "prosthetic group"}, "XaPobA": {"molecular_target": "T3, XaPobA (Xylophilus ampelinus, UniProt A0AAJ6N6I2)", "T3 construct": "gene praI; codon-optimised gene in modified pET28a, 6xHis tag, E. coli BL21 Star (DE3), HisTrap; homodimer in crystal", "T3 sequence (A0AAJ6N6I2 1-391)": "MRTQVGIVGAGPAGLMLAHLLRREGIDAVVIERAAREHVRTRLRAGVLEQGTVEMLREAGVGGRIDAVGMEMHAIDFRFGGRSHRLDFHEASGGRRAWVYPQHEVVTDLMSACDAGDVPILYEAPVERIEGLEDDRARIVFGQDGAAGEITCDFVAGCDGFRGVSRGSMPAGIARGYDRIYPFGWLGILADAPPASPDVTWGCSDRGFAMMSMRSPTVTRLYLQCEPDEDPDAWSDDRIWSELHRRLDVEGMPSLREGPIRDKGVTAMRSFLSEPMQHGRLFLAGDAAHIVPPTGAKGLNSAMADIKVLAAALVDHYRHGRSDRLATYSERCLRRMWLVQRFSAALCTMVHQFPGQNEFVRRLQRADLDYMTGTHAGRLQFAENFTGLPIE", "assay": "X-ray crystal structure; HPLC of heat-released flavin", "settings": "oxidized form, prosthetic group"}}}
{"smiles": "Cc1cc2nc3c(=O)[nH]c(=O)nc-3n(C[C@H](O)[C@H](O)[C@H](O)COP(=O)(O)OP(=O)(O)OC[C@H]3O[C@@H](n4cnc5c(N)ncnc54)[C@H](O)[C@@H]3O)c2cc1C", "note": "[FAD, flavin adenine dinucleotide]", "values": [{"measurement": "HPLC of heat-released flavin; absorption spectrum", "setting": "PkPobA", "result": "indicating that XaPobA, OtPobA, and PkPobA use FAD as a prosthetic group"}, {"measurement": "HPLC of heat-released flavin; absorption spectrum", "setting": "OtPobA", "result": "indicating that XaPobA, OtPobA, and PkPobA use FAD as a prosthetic group"}, {"measurement": "X-ray crystal structure; HPLC of heat-released flavin", "setting": "XaPobA", "result": "homodimer, with each unit binding an oxidized form of FAD in its active site"}]}
